Laboratory results taken from ChEMBL document CHEMBL5291721, “A preclinical secondary pharmacology resource illuminates target-adverse drug reaction associations of marketed drugs” (Nat Commun, 2023).

Tests used:
[1] = target: T1, Muscarinic acetylcholine receptor M2 (Homo sapiens, UniProt P08172); type: functional, cell-based
T1 sequence (P08172 whole entry): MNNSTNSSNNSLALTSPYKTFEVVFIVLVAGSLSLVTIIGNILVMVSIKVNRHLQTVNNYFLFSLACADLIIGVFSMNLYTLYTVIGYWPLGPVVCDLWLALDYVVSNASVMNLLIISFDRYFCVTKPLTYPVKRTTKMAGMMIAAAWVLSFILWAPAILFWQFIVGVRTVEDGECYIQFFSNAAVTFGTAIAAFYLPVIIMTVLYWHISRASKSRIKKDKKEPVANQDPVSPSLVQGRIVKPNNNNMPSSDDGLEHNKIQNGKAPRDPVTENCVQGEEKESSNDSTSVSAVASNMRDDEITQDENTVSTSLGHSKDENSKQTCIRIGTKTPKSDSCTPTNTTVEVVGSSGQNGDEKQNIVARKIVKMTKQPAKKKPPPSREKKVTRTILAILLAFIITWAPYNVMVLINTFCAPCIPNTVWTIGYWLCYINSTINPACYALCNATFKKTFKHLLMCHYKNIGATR

D(1A) dopamine receptor = D(1A) dopamine receptor (Homo sapiens, UniProt P21728)
[2] = target: Sodium-dependent noradrenaline transporter (Homo sapiens, UniProt P23975)
[3] = target: T2, Gastrin/cholecystokinin type B receptor (Homo sapiens, UniProt P32239)
T2 sequence (P32239 whole entry): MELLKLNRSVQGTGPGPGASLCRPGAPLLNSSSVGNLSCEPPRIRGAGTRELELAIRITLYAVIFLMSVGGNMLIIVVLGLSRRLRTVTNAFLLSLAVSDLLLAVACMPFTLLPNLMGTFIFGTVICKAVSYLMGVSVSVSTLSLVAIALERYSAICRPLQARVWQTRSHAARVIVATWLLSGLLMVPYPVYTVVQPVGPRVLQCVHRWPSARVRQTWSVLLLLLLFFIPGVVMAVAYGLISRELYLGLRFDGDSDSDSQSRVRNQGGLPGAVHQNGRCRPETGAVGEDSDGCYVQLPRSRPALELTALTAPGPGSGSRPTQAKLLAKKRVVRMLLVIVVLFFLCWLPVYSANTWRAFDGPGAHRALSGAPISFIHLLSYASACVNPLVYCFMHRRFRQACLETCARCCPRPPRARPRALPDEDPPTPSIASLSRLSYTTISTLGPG

[4] = target: T3, Amine oxidase [flavin-containing] A (Homo sapiens, UniProt P21397); type: functional
T3 sequence (P21397 whole entry): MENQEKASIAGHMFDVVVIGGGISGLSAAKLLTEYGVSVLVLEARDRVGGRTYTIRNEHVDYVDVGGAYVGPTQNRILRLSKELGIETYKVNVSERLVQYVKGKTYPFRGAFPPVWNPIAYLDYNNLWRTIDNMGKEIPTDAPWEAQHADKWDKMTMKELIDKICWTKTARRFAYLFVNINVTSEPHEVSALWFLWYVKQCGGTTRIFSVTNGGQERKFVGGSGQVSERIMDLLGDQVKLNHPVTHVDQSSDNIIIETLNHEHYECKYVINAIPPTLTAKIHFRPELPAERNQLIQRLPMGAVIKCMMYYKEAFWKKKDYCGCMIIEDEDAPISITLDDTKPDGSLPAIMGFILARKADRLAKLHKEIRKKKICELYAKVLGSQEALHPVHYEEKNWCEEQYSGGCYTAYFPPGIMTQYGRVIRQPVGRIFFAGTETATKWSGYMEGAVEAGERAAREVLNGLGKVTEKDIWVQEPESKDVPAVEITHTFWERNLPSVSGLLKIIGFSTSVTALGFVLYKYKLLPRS

[5] = target: T4, 5-hydroxytryptamine receptor 3A (Homo sapiens, UniProt P46098); type: functional
T4 sequence (P46098 whole entry): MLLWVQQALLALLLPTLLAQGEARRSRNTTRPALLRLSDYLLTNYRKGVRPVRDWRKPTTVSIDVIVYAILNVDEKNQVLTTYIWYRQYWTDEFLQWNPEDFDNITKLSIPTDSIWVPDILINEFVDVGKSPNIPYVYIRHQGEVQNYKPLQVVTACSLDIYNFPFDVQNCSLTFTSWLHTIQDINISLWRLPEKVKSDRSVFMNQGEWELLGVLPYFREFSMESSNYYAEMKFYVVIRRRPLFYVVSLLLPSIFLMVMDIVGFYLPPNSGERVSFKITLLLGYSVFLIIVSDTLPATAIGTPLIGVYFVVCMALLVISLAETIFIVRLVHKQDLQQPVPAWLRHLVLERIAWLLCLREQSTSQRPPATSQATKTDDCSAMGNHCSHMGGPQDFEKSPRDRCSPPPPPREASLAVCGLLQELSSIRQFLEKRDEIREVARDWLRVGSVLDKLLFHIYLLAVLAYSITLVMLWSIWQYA
Also: assay procedure not described here.

Sequence of Sodium-dependent noradrenaline transporter (P23975 whole entry): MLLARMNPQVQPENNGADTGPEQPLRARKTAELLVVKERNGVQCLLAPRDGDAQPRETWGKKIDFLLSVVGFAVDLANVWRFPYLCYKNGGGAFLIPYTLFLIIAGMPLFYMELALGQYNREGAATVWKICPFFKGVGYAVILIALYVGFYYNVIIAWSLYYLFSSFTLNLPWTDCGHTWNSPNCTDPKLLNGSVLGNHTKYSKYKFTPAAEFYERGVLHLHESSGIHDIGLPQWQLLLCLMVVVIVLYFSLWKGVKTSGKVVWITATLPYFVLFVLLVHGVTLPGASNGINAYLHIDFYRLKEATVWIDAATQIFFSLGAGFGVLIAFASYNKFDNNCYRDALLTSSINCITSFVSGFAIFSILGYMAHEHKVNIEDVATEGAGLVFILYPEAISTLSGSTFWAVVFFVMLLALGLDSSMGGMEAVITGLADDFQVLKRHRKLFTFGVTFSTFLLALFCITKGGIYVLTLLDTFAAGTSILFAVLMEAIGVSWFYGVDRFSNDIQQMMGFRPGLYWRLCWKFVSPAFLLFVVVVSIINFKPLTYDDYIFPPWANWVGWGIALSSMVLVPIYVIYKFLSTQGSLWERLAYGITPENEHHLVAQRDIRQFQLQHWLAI
Sequence of D(1A) dopamine receptor (P21728 whole entry): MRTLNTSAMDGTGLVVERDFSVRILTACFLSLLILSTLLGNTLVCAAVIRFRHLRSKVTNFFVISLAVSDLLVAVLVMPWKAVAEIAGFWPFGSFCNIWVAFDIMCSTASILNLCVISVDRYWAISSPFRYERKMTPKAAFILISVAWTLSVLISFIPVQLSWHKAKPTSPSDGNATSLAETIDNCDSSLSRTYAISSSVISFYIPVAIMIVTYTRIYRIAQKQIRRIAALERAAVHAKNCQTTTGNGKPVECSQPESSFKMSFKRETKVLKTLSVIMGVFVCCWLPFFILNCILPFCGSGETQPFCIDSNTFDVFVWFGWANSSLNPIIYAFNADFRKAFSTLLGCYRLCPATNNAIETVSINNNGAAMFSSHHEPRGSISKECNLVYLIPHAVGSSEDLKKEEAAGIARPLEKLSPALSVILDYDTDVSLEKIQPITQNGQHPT

C[C@@H]1C[C@H]2[C@@H]3C[C@H](F)C4=CC(=O)C=C[C@]4(C)[C@@]3(F)[C@@H](O)C[C@]2(C)[C@@]1(OC(=O)c1ccco1)C(=O)SCF [FLUTICASONE FUROATE]
AC50 [1]: > 10 µM
AC50 (D(1A) dopamine receptor): > 30 µM
AC50 [2]: > 30 µM
AC50 [3]: > 10 µM
AC50 [4]: > 10 µM
AC50 [5]: > 30 µM

O=C(O)c1cccnc1Nc1cccc(C(F)(F)F)c1 [NIFLUMIC ACID]
AC50 [1]: > 10 µM
AC50 [4]: > 10 µM
AC50 [5]: > 30 µM

Cc1ccccc1-n1c(CF)nc2ccc(N)cc2c1=O [AFLOQUALONE]
AC50 [1]: > 10 µM
AC50 [3]: > 30 µM
AC50 [4]: > 10 µM
AC50 [5]: > 30 µM

OC[C@H]1O[C@@H](n2cnc3c2NC=NC[C@H]3O)C[C@@H]1O [PENTOSTATIN]
AC50 [1]: > 30 µM
AC50 [3]: > 30 µM
AC50 [4]: > 30 µM
AC50 [5]: > 30 µM

COc1ccc([C@@H]2CC(=O)c3c(O)cc(O)cc3O2)cc1O [HESPERETIN]
AC50 [1]: > 10 µM
AC50 [4]: > 10 µM
AC50 [5]: > 30 µM

CCCN1CC(NS(=O)(=O)N(CC)CC)CC2Cc3c(O)cccc3CC21 (stereo unspecified) [QUINAGOLIDE]
AC50 [1]: > 30 µM
AC50 [3]: > 30 µM
AC50 [4]: > 30 µM
AC50 [5]: > 30 µM

COC(=O)C1=C(C)NC(C)=C(C(=O)OCCN2CCN(C(c3ccccc3)c3ccccc3)CC2)C1c1cccc([N+](=O)[O-])c1 (stereo unspecified) [MANIDIPINE 6300]
AC50 [1]: > 30 µM
AC50 [3]: > 30 µM
AC50 [4]: > 30 µM
AC50 [5]: > 30 µM

CN(C)C/C=C/C(=O)Nc1cc2c(Nc3ccc(F)c(Cl)c3)ncnc2cc1O[C@H]1CCOC1 [AFATINIB]
AC50 [1]: 23 µM
AC50 [3]: > 30 µM
AC50 [4]: > 30 µM
AC50 [5]: > 30 µM

CC(C)(Oc1ccc(CCNC(=O)c2ccc(Cl)cc2)cc1)C(=O)O [BEZAFIBRATE]
AC50 [1]: > 10 µM
AC50 [4]: > 10 µM
AC50 [5]: > 30 µM

CN[C@@H](C)[C@@H](O)c1ccccc1 [PSEUDOEPHEDRINE]
AC50 [1]: > 10 µM
AC50 [3]: > 30 µM
AC50 [4]: > 10 µM
AC50 [5]: > 30 µM

CCOC(=O)c1c(CSc2ccccc2)n(C)c2cc(Br)c(O)c(CN(C)C)c12 [UMIFENOVIR]
AC50 [1]: 28 µM
AC50 [3]: > 30 µM
AC50 [4]: > 30 µM
AC50 [5]: > 30 µM

O=C1c2ccccc2C(=O)C1c1ccccc1 [PHENINDIONE]
AC50 [1]: > 10 µM
AC50 [4]: > 10 µM
AC50 [5]: > 30 µM

C[C@]12CCC(=O)C[C@@H]1CC[C@@H]1[C@@H]2CC[C@]2(C)[C@@H](O)CC[C@@H]12 [STANOLONE]
AC50 [1]: > 30 µM
AC50 [3]: > 30 µM
AC50 [4]: > 30 µM
AC50 [5]: > 30 µM

C[C@]12C=CC(=O)C=C1CC[C@@H]1[C@@H]2CC[C@]2(C)OC(=O)CC[C@@H]12 [TESTOLACTONE]
AC50 [1]: > 10 µM
AC50 [4]: > 10 µM
AC50 [5]: > 30 µM

CC(Cc1cccc(C(F)(F)F)c1)NCCOC(=O)c1ccccc1 (stereo unspecified) [BENFLUOREX]
AC50 [1]: > 30 µM
AC50 [3]: > 30 µM
AC50 [4]: > 30 µM

O=C1c2cccc3c2[C@H](CCC3)CN1[C@@H]1CN2CCC1CC2 [PALONOSETRON]
AC50 [1]: > 30 µM
AC50 [3]: > 30 µM
AC50 [4]: > 30 µM
AC50 [5]: 0.0021 µM

Cc1ccccc1N1C(=O)c2cc(S(N)(=O)=O)c(Cl)cc2NC1C (stereo unspecified) [METOLAZONE]
AC50 [1]: > 10 µM
AC50 [4]: > 10 µM
AC50 [5]: > 30 µM

C[N+](C)(C)CCOP(=O)([O-])OC[C@H](O)CO
AC50 [1]: > 30 µM
AC50 [3]: > 30 µM
AC50 [4]: > 30 µM
AC50 [5]: > 30 µM

CCOC(=O)c1ccc(N)cc1 [BENZOCAINE]
AC50 [1]: > 10 µM
AC50 [4]: 19 µM
AC50 [5]: > 30 µM

C/C=C(/C(=C/C)c1ccc(O)cc1)c1ccc(O)cc1 [DIENESTROL]
AC50 [1]: > 10 µM
AC50 [4]: > 10 µM
AC50 [5]: > 30 µM

CN(C)CCCN1c2ccccc2CCc2ccccc21 [IMIPRAMINE]
AC50 [1]: 4.3 µM
AC50 [3]: > 30 µM
AC50 [4]: > 10 µM
AC50 [5]: > 10 µM

CN(Cc1cnc2nc(N)nc(N)c2n1)c1ccc(C(=O)N[C@@H](CCC(=O)O)C(=O)O)cc1 [METHOTREXATE]
AC50 [1]: > 10 µM
AC50 [3]: > 30 µM
AC50 [4]: > 10 µM
AC50 [5]: > 30 µM

CC(=O)O[C@]1(C(C)=O)CC[C@H]2[C@@H]3C=C(Cl)C4=CC(=O)[C@@H]5C[C@@H]5[C@]4(C)[C@H]3CC[C@@]21C [CYPROTERONE ACETATE]
AC50 (D(1A) dopamine receptor): > 30 µM
AC50 [2]: > 30 µM
AC50 [3]: > 30 µM
AC50 [4]: > 10 µM
AC50 [5]: > 30 µM

Cc1cccc(C)c1NC(=O)CC12CCCN1CCC2 [PILSICAINIDE]
AC50 [1]: > 30 µM
AC50 [3]: > 30 µM
AC50 [4]: > 30 µM
AC50 [5]: > 30 µM

CC(=O)[C@H]1CC[C@H]2[C@@H]3C=CC4=CC(=O)CC[C@@]4(C)[C@@H]3CC[C@]12C [DYDROGESTERONE]
AC50 (D(1A) dopamine receptor): > 30 µM
AC50 [2]: > 30 µM

CCOC(=O)C1=C(C)NC(C)=C(C(=O)OCC)C1c1ccccc1/C=C/C(=O)OC(C)(C)C [LACIDIPINE]
AC50 [1]: > 30 µM
AC50 [3]: > 30 µM
AC50 [4]: > 30 µM
AC50 [5]: > 30 µM

CCC[C@@H]1C[C@@H](C(=O)N[C@@H]([C@H]2O[C@H](SC)[C@H](O)[C@@H](O)[C@H]2O)[C@@H](C)O)N(C)C1 [LINCOMYCIN]
AC50 [1]: > 10 µM
AC50 [4]: > 10 µM
AC50 [5]: > 30 µM

C=C1CC[C@H](O)C/C1=C/C=C1\CCC[C@]2(C)[C@@H]([C@H](C)CCCC(C)C)CC[C@@H]12 [CHOLECALCIFEROL]
AC50 (D(1A) dopamine receptor): > 30 µM
AC50 [2]: > 10 µM

CC(C)c1cccc(C(C)C)c1O [PROPOFOL]
AC50 [1]: > 30 µM
AC50 [4]: > 30 µM
AC50 [5]: > 30 µM

C[N+]1(C)CCC(=C(c2ccccc2)c2ccccc2)CC1
AC50 [3]: > 30 µM
AC50 [4]: > 10 µM
AC50 [5]: 6.1 µM

CCC1(c2ccc(N)cc2)CCC(=O)NC1=O (stereo unspecified) [AMINOGLUTETHIMIDE]
AC50 [1]: > 30 µM
AC50 [3]: > 30 µM
AC50 [4]: > 30 µM
AC50 [5]: > 30 µM

CC1=C(C(=O)OC(C)C)C(c2cccc([N+](=O)[O-])c2)C(C(=O)OC2CN(C(c3ccccc3)c3ccccc3)C2)=C(N)N1 (stereo unspecified) [AZELNIDIPINE]
AC50 [1]: > 30 µM
AC50 [3]: > 30 µM
AC50 [4]: > 30 µM
AC50 [5]: > 30 µM

CC(O)(P(=O)(O)O)P(=O)(O)O [ETIDRONIC ACID]
AC50 (D(1A) dopamine receptor): > 30 µM
AC50 [2]: > 30 µM

CNCCc1ccc(OC(=O)C(C)C)c(OC(=O)C(C)C)c1 [IBOPAMINE]
AC50 [1]: > 30 µM
AC50 [3]: > 30 µM
AC50 [4]: > 30 µM
AC50 [5]: > 30 µM

O=C1OC(OC(=O)c2cccnc2Nc2cccc(C(F)(F)F)c2)c2ccccc21 (stereo unspecified) [TALNIFLUMATE]
AC50 [1]: > 30 µM
AC50 [3]: > 30 µM
AC50 [4]: > 30 µM
AC50 [5]: > 30 µM

CN[C@]1(c2ccccc2Cl)CCCCC1=O [ESKETAMINE]
AC50 [1]: > 30 µM
AC50 [3]: > 30 µM
AC50 [4]: > 30 µM
AC50 [5]: > 30 µM

C=C1c2cccc(O)c2C(=O)C2=C(O)[C@]3(O)C(=O)C(C(N)=O)=C(O)[C@@H](N(C)C)[C@@H]3[C@@H](O)[C@H]12 [METHACYCLINE]
AC50 [1]: > 10 µM
AC50 [3]: > 30 µM
AC50 [4]: > 10 µM
AC50 [5]: > 30 µM

CN(C)Cc1nnc2n1-c1ccc(Cl)cc1C(c1ccccc1)=NC2 [ADINAZOLAM]
AC50 [1]: > 10 µM
AC50 [4]: > 10 µM
AC50 [5]: > 30 µM
